In US10658848B2, “Materials for use with aqueous redox flow batteries and related methods and systems” (Massachusetts Institute of Technology, priority 2014, dated 2020):
≈ marks a conversion by molar mass, not a printed value. Read-outs that look alike come from different tables or passages of the source.

How the values were obtained:
Type in all cases: physicochemical
[1] = Quantitative CV and rotating disk voltammetry with numerical fitting (Randles-Sevcik, Levich); conditions: for DO, diffusion coefficient for quinoxaline / DR, diffusion coefficient for the reduced species / α, transfer coefficient for the reduction (forward) reaction: 295 K; for number of electrons transferred, n: ± 95% confidence interval
Excerpt: A set of quantitative experiments were designed to calculate the number of electrons transferred, diffusion coefficients, and transfer coefficients using the Randles-Sevcik equation for irreversible CVs (Eq. (E1)) and the Levich equation (Eq. (E2)). In Eq. (E1), ip is the peak current, n is the number of electrons transferred, α is the transfer coefficient, A is the electrode surface area, F is Faraday's constant, C is the reactant concentration, s is the scan rate, R is the universal gas constant, T is temperature, and D is the diffusion coefficient (e.g., see Compton et al. Understanding Voltammetry, 2nd ed., Imperial College Press, London, 2011). Additionally, in Eq. (E2), iL is the RDV limiting current, ω is the electrode rotation rate, and v is the kinematic viscosity (e.g., see Bard et al. Electrochemical Methods: Fundamentals and Applications, John Wiley & Sons, Danvers, 2001). Kinematic viscosities were determined from dynamic viscosities, which were interpolated from tables by Zaytsev and […] et al. Properties of Aqueous Solutions of Electrolytes, 1st ed., CRC Press, Boca Raton, 1992), and electrolyte densities, which were measured using a balance and known solution volume. All remaining variables are constants or were determined by the experimental design. Quantitative CV and RDV experiments were carried out in a water-jacketed three-electrode cell. Chilled water at a temperature of 295 K (22° C.) was continuously passed through the water jacket in order to maintain a constant temperature throughout the experiment. A rotating disk electrode with a 0.5 cm diameter glassy carbon electrode (0.196 cm^2) was used as a working electrode. A coiled Pt wire used as a counter electrode was housed in a glass compartment that was separated from the main chamber by a porous frit. Both chambers were filled with the same bulk electrolyte. The reference electrode was a double junction Ag/AgCl (10% KNO3), which had been calibrated against a commercially available reversible hydrogen electrode (BAS Inc.) in 1 M NaHCO3 solution by measuring OCV between the two electrodes. All cell components were purchased from Pine Instruments Co., including the rotator and motor used in RDV experiments. Cells were filled with 80 mL of solution, and the solution was bubbled with argon using a porous glass frit at a rate of 50 mL/min for 1 h before taking any electrochemical measurements. After 1 h, the argon gas bubbling stream was switched to an argon gas blanket above the solution. Three cycles of CV, with a stationary electrode, were recorded at each of the following scan rates: 5, 10, 20, 50, and 100 mV/s. Between CV and RDV experiments, the glassy carbon electrode was re-polished before beginning RDV experiments. […] Quantitative voltammetry experiments were performed in triplicate using freshly prepared solution and freshly polished glassy carbon electrodes for each trial. CV experiments were performed at five different scan rates, and RDV experiments were performed at five different rotation speeds for each electrolyte of interest. The aim of these experiments was to determine the number of electrons transferred during a quinoxaline redox reaction, the diffusion coefficients of quinoxaline and its reduced species in each electrolyte, and the transfer coefficients of the redox reactions. FIG. 5a-e and FIG. 6a-e display the third cycle of typical CV data at different scan rates and the second cathodic scan of typical RDV data at different rotation rates, respectively. In order to quantitatively determine the number of electrons transferred, a numerical fitting technique was employed. Among the irreversible Randles-Sevcik (Eq. (E1)) and Levich (Eq. (E2)) equations, there are four unknown variables: the number of electrons transferred, n, two diffusion coefficients, DO/DR, and the transfer coefficient, α. […]

[2] = Repeated CV cycling of 5 mM quinoxaline in 1 M potassium chloride
Procedure: Electrochemical experiments were carried out using other electrolytes.

[3] = Solubility limit of quinoxaline in electrolytes and DI H2O; conditions: thermodynamic from solid
Procedure: The solubility limit (at room temperature) of quinoxaline in several electrolytes and DI H2O was estimated using the following method. Scintillation vials were filled with a known volume of electrolyte, and quinoxaline was added in 0.5 M increments. The vials were then vortex sonicated for ˜5 min between quinoxaline additions. Once no more quinoxaline could be dissolved into the vial, the solubility limit was recorded. This method was accurate to the lowest 0.5 M concentration, and solution volume changes due to quinoxaline addition were not considered.

[4] = 0.45M K2SO4/0.1M KOH, pH 12.9, n=2 fixed
[5] = 0.495M K2SO4/0.01M KOH, pH 11.8, n=2 fixed
[6] = 0.9M KCl/0.1M KOH, pH 12.9, n=2 fixed
[7] = 0.99M KCl/0.01M KOH, pH 11.8, n=2 fixed

DO, diffusion coefficient for quinoxaline [1, 4]: 7.3 ± 1.7 10^−6 cm^2/s
DR, diffusion coefficient for the reduced species [1, 4]: 4.4 ± 0.4 10^−6 cm^2/s
α, transfer coefficient for the reduction (forward) reaction [1, 4]: 0.60 ± 0.00
number of electrons transferred, n ([1]; 0.45M K2SO4/0.1M KOH, pH 12.9): 2.54 ± 0.43
DO, diffusion coefficient for quinoxaline [1, 5]: 6.4 ± 0.7 10^−6 cm^2/s
DR, diffusion coefficient for the reduced species [1, 5]: 4.8 ± 1.0 10^−6 cm^2/s
α, transfer coefficient for the reduction (forward) reaction [1, 5]: 0.59 ± 0.00
number of electrons transferred, n ([1]; 0.495M K2SO4/0.01M KOH, pH 11.8): 2.26 ± 0.33
DO, diffusion coefficient for quinoxaline [1, 6]: 6.7 ± 0.4 10^−6 cm^2/s
DR, diffusion coefficient for the reduced species [1, 6]: 5.9 ± 1.0 10^−6 cm^2/s
α, transfer coefficient for the reduction (forward) reaction [1, 6]: 0.62 ± 0.02
number of electrons transferred, n ([1]; 0.9M KCl/0.1M KOH, pH 12.9): 2.90 ± 0.03
DO, diffusion coefficient for quinoxaline [1, 7]: 6.0 ± 0.6 10^−6 cm^2/s
DR, diffusion coefficient for the reduced species [1, 7]: 4.9 ± 2.2 10^−6 cm^2/s
α, transfer coefficient for the reduction (forward) reaction [1, 7]: 0.59 ± 0.04
number of electrons transferred, n ([1]; 0.99M KCl/0.01M KOH, pH 11.8): 1.89 ± 0.21
DO, diffusion coefficient for quinoxaline ([1]; 1M KOH, pH 13.7, n=2 fixed): 5.8 ± 0.9 10^−6 cm^2/s
DR, diffusion coefficient for the reduced species ([1]; 1M KOH, pH 13.7, n=2 fixed): 4.0 ± 1.7 10^−6 cm^2/s
α, transfer coefficient for the reduction (forward) reaction ([1]; 1M KOH, pH 13.7, n=2 fixed): 0.60 ± 0.05
number of electrons transferred, n ([1]; 1M KOH, pH 13.7): 2.34 ± 0.72
diffusion coefficient of quinoxaline relative to the reduced species ([1]; in each electrolyte of Table E3): 1.1-1.7 ×
mean calculated value for n (navg) ([1]; mean over the electrolytes in Table E2): 2.34
transfer coefficient α for the forward reaction ([1]; overall, n=2 fixed): ≈ 0.6
number of electrons transferred, n, rounded to nearest integer ([1]; rounded from navg): 2
theoretical capacity ([1]; two-electron transfer process): 410 mAh/g
cathodic and anodic currents on repeated cycling ([2]; 5 mM quinoxaline in 1 M potassium chloride, no added base, glassy carbon electrode): decreased with repeated cycling
solubility ([3]; 0.45 M K2SO4/0.1 M KOH electrolyte, aqueous buffer, 0.45M K2SO4/0.1M KOH, pH 12.9, room temperature, three phase separation, read-out: Solubility Limit): 500 mM (≈ 65.1 mg/mL)
solubility ([3]; 0.495 M K2SO4/0.01 M KOH electrolyte, aqueous buffer, 0.495M K2SO4/0.01M KOH, pH 11.8, room temperature, three phase separation, read-out: Solubility Limit): 500 mM (≈ 65.1 mg/mL)
solubility ([3]; 0.9 M KCl/0.1 M KOH electrolyte, aqueous buffer, 0.9M KCl/0.1M KOH, pH 12.9, room temperature, bed of small crystals, read-out: Solubility Limit): 4000 mM (≈ 521 mg/mL)
solubility ([3]; 0.99 M KCl/0.01 M KOH electrolyte, aqueous buffer, 0.99M KCl/0.01M KOH, pH 11.8, room temperature, bed of small crystals, read-out: Solubility Limit): 4000 mM (≈ 521 mg/mL)
solubility ([3]; 1 M KOH electrolyte, aqueous buffer, 1M KOH, pH 13.7, room temperature, dendritic precipitation of crystals, read-out: Solubility Limit): 500 mM (≈ 65.1 mg/mL)
solubility ([3]; aqueous electrolytes containing K2SO4 or only KOH, aqueous buffer, read-out: solubility of quinoxaline): ≤ 500 mM
solubility ([3]; solutions containing KCl, aqueous buffer, read-out: solubility of quinoxaline): ≤ 4000 mM
solubility ([3]; water, DI H2O, pH 7.0, room temperature, bed of small crystals, read-out: Solubility Limit): 4500 mM (≈ 586 mg/mL)
SMILES: c1ccc2nccnc2c1 [quinoxaline]
peak currents on repeated cycling ([2]; 5 mM quinoxaline in 1 M potassium chloride with 10 mM potassium hydroxide): no decrease in peak currents was observed after 100 or 200 cycles
